Laboratory results: patent US8329755B2, “Methods for treating retroviral infections” (Roche Palo Alto LLC, priority 2004, dated 2012)

SMILES | melting point [°C]
COCC(=O)NS(=O)(=O)c1ccc(NC(=O)Cc2ccc(Cl)c(Oc3cc(Cl)cc(C#N)c3)c2F)c(Cl)c1.[Na] | 151.7 to 152.3
COc1ccc(CC(=O)Nc2ccc(S(N)(=O)=O)cc2C)cc1Oc1cc(Cl)cc(C#N)c1 [Compound I-73, 2-[3-(3-Chloro-5-cyano-phenoxy)-4-methoxy-phenyl]-N-(2-methyl-4-sulfamoyl-phenyl)-acetamide] | 222.3 to 224.3
Cc1cc(S(N)(=O)=O)ccc1NC(=O)Cc1ccc(C)c(Oc2cc(C#N)cc(C#N)c2)c1 [Compound I-43, 2-[3-(3,5-Dicyano-phenoxy)-4-methyl-phenyl]-N-(2-methyl-4-sulfamoyl-phenyl)-acetamide] | 228.6 to 230.9
Cc1cc(S(N)(=O)=O)ccc1NC(=O)Cc1ccc(Cl)c(Oc2cc(C#N)cc(C(C)(F)F)c2)c1F [Compound I-96, 2-{4-Chloro-3-[3-cyano-5-(1,1-difluoro-ethyl)-phenoxy]-2-fluoro-phenyl}-N-(2-methyl-4-sulfamoyl-phenyl)-acetamide] | 198.5 to 201
N#Cc1cc(Cl)cc(Oc2cc(CC(=O)Nc3ccc(S(N)(=O)=O)cc3)ccc2Cl)c1 [Compound I-1, 2-[4-Chloro-3-(3-chloro-5-cyano-phenoxy)-phenyl]-N-(4-sulfamoyl-phenyl)-acetamide] | 210.5 to 214
CCc1ccc(CC(=O)Nc2ccccc2Cl)cc1Oc1cc(C#N)cc(F)c1Cl [Compound I-59, 2-[3-(2-Chloro-5-cyano-3-fluoro-phenoxy)-4-ethyl-phenyl]-N-(2-chloro-phenyl)-acetamide] | 142.1 to 142.8
NS(=O)(=O)c1ccc(NC(=O)Cc2ccc(Cl)c(Oc3cc(Cl)cc(Cl)c3Cl)c2F)cc1 [Compound I-10, 2-[4-Chloro-2-fluoro-3-(2,3,5-trichloro-phenoxy)-phenyl]-N-(4-sulfamoyl-phenyl)-acetamide] | 247 to 249.9
CCc1ccc(CC(=O)Nc2ccc(S(N)(=O)=O)cc2C)cc1Oc1cc(C#N)cc(F)c1Cl [Compound I-50, 2-[3-(2-Chloro-5-cyano-3-fluoro-phenoxy)-4-ethyl-phenyl]-N-(2-methyl-4-sulfamoyl-phenyl)-acetamide] | 217.6 to 220.4
COc1ccc(CC(=O)Nc2ccc(S(N)(=O)=O)cc2Cl)cc1Oc1cc(C#N)cc(C(F)F)c1 [Compound I-94, N-(2-Chloro-4-sulfamoyl-phenyl)-2-[3-(3-cyano-5-difluoromethyl-phenoxy)-4-methoxy-phenyl]-acetamide] | 185 to 187.9
CC(F)(F)c1cc(C#N)cc(Oc2c(Cl)ccc(CC(=O)Nc3ccc(S(N)(=O)=O)cc3)c2F)c1 [Compound I-95, 2-{4-Chloro-3-[3-cyano-5-(1,1-difluoro-ethyl)-phenoxy]-2-fluoro-phenyl}-N-(4-sulfamoyl-phenyl)-acetamide] | 207 to 209.8
CCc1ccc(CC(=O)Nc2ccccc2Cl)cc1Oc1c(Cl)cccc1Cl [Compound I-23, N-(2-Chloro-phenyl)-2-[3-(2,6-dichloro-phenoxy)-4-ethyl-phenyl]-acetamide] | 107 to 110.5
N#Cc1cc(Oc2c(Cl)ccc(CC(=O)Nc3ccccc3Cl)c2F)cc(C(F)F)c1 [Compound I-14, 2-[4-Chloro-3-(3-cyano-5-difluoromethyl-phenoxy)-2-fluoro-phenyl]-N-(2-chloro-phenyl)-acetamide] | 169.5 to 171
Cc1cc(S(N)(=O)=O)ccc1NC(=O)Cc1ccc(Cl)c(Oc2c(C)cc(C#N)cc2C)c1 [Compound I-56, 2-[4-Chloro-3-(4-cyano-2,6-dimethyl-phenoxy)-phenyl]-N-(2-methyl-4-sulfamoyl-phenyl)-acetamide] | 232.1 to 234.6
CCc1ccc(CC(=O)Nc2ccccc2Cl)cc1Oc1cc(Cl)cc(Br)c1 [Compound I-24, 2-[3-(3-Bromo-5-chloro-phenoxy)-4-ethyl-phenyl]-N-(2-chloro-phenyl)-acetamide] | 119.9 to 122.2

The remaining lines, values ahead:

melting point [°C] | SMILES
223.9 to 225 | Cc1cc(S(N)(=O)=O)ccc1NC(=O)Cc1ccc(Br)c(Oc2cc(C#N)cc(C(F)F)c2)c1F [Compound I-169, 2-[4-Bromo-3-(3-cyano-5-difluoromethyl-phenoxy)-2-fluoro-phenyl]-N-(2-methyl-4-sulfamoyl-phenyl)-acetamide]
263 to 264.4 | Cc1cc(S(N)(=O)=O)ccc1NC(=O)Cc1ccc(Cl)c(C(=O)c2cc(Cl)cc(Cl)c2)c1 [Compound I-252, 2-[4-Chloro-3-(3,5-dichloro-benzoyl)-phenyl]-N-(2-methyl-4-sulfamoyl-phenyl)-acetamide]
177 to 177.9 | COc1ccc(CC(=O)Nc2ccc(S(N)(=O)=O)cc2C)cc1C(=O)c1cc(Br)ccc1Cl [Compound I-264, 2-[3-(5-Bromo-2-chloro-benzoyl)-4-methoxy-phenyl]-N-(2-methyl-4-sulfamoyl-phenyl)-acetamide]
182.5 to 183.9 | CCOC(=O)C(=O)Nc1ccc(NC(=O)Cc2ccc(C)c(Oc3cc(Cl)cc(C#N)c3)c2)c(C)c1 [Compound I-178, N-(4-{2-[3-(3-Chloro-5-cyano-phenoxy)-4-methyl-phenyl]-acetylamino}-3-methyl-phenyl)-oxalamic acid ethyl ester]
192 to 197.6 | CC(F)(F)c1cc(C#N)cc(Oc2c(Cl)ccc(CC(=O)Nc3ccc(S(N)(=O)=O)cc3Cl)c2F)c1 [Compound I-97, 2-{4-Chloro-3-[3-cyano-5-(1,1-difluoro-ethyl)-phenoxy]-2-fluoro-phenyl}-N-(2-chloro-4-sulfamoyl-phenyl)-acetamide]
64.8 to 65.4 | Cc1cc(N2CCS(=O)(=O)CC2)ccc1NC(=O)Cc1ccc(C)c(Oc2cc(Cl)cc(C#N)c2)c1 [Compound I-161, 2-[3-(3-Chloro-5-cyano-phenoxy)-4-methyl-phenyl]-N-[4-(1,1-dioxo-1λ^6-thiomorpholin-4-yl)-2-methyl-phenyl]-acetamide]
218.9 to 220 | Cc1cc(S(N)(=O)=O)ccc1NC(=O)Cc1cc(Oc2cccc(C#N)c2)c2occc2c1 [Compound I-145, 2-[7-(3-Cyano-phenoxy)-benzofuran-5-yl]-N-(2-methyl-4-sulfamoyl-phenyl)-acetamide]
239.6 to 240.7 | CCc1ccc(CC(=O)Nc2ccc(S(N)(=O)=O)cc2Cl)c(F)c1Oc1cc(C#N)cc(C(F)F)c1 [Compound I-179, N-(2-Chloro-4-sulfamoyl-phenyl)-2-[3-(3-cyano-5-difluoromethyl-phenoxy)-4-ethyl-2-fluoro-phenyl]-acetamide]
212 to 216.9 | CCC(=O)N(C)S(=O)(=O)c1ccc(NC(=O)Cc2ccc(Cl)c(Oc3cc(Cl)cc(C#N)c3)c2F)c(C)c1 [Compound I-99, 2-[4-Chloro-3-(3-chloro-5-cyano-phenoxy)-2-fluoro-phenyl]-N-[2-methyl-4-(methyl-propionyl-sulfamoyl)-phenyl]-acetamide]
184.1 to 185.5 | COc1cc(CC(=O)Nc2ccc(S(N)(=O)=O)cc2)cc(Oc2cc(Cl)cc(C#N)c2)c1 [Compound I-132, 2-[3-(3-Chloro-5-cyano-phenoxy)-5-methoxy-phenyl]-N-(4-sulfamoyl-phenyl)-acetamide]
142 to 146.2 | Cc1cc(CC(=O)Nc2ccccc2Cl)cc(C(=O)c2cc(Cl)cc(Cl)c2)c1 [Compound I-231, N-(2-Chloro-phenyl)-2-[3-(3,5-dichloro-benzoyl)-5-methyl-phenyl]-acetamide]
172.2 to 172.8 | O=C(Cc1ccc(Cl)c(Sc2cc(Cl)ccc2Br)c1)Nc1ccccc1Cl [Compound I-244, 2-[3-(2-Bromo-5-chloro-phenylsulfanyl)-4-chloro-phenyl]-N-(2-chloro-phenyl)-acetamide]
155.6 to 159 | Cc1cc(NC(=O)Cc2ccc(C)c(Oc3cc(Cl)cc(C#N)c3)c2)n(C)n1 [Compound I-226, 2-[3-(3-Chloro-5-cyano-phenoxy)-4-methyl-phenyl]-N-(2,5-dimethyl-2H-pyrazol-3-yl)-acetamide]
231.6 to 233.1 | CCc1cc(CC(=O)Nc2ccc(S(N)(=O)=O)cc2C)cc(Oc2cc(C#N)ccc2Cl)c1 [Compound I-106, 2-[3-(2-Chloro-5-cyano-phenoxy)-5-ethyl-phenyl]-N-(2-methyl-4-sulfamoyl-phenyl)-acetamide]
230.8 to 233.4 | Cc1cc(S(N)(=O)=O)ccc1NC(=O)Cc1cc(C)c(C)c(Oc2cc(Cl)cc(C#N)c2)c1 [Compound I-183, 2-[3-(3-Chloro-5-cyano-phenoxy)-4,5-dimethyl-phenyl]-N-(2-methyl-4-sulfamoyl-phenyl)-acetamide]
78.9 to 79.5 | Cc1cc(S(=O)(=O)CCCO)ccc1NC(=O)Cc1ccc(C)c(Oc2cc(Cl)cc(C#N)c2)c1 [Compound I-157, 2-[3-(3-Chloro-5-cyano-phenoxy)-4-methyl-phenyl]-N-[4-(3-hydroxy-propane-1-sulfonyl)-2-methyl-phenyl]-acetamide]
174.8 to 176.4 | Cc1cc(OCC(=O)O)ccc1NC(=O)Cc1ccc(C)c(Oc2cc(Cl)cc(C#N)c2)c1 [Compound I-234, (4-{2-[3-(3-Chloro-5-cyano-phenoxy)-4-methyl-phenyl]-acetylamino}-3-methyl-phenoxy)-acetic acid]
224.3 to 225.7 | Cc1cc(CC(=O)Nc2ccc(S(N)(=O)=O)cc2Cl)cc(Oc2cc(Cl)cc(C#N)c2)c1C [Compound I-184, 2-[3-(3-Chloro-5-cyano-phenoxy)-4,5-dimethyl-phenyl]-N-(2-chloro-4-sulfamoyl-phenyl)-acetamide]
192.8 to 194.1 | Cc1cc(S(N)(=O)=O)ccc1NC(=O)Cc1ccc(C)c(Oc2cc(Cl)cc(C#N)c2)c1 [Compound I-122, 2-[3-(3-Chloro-5-cyano-phenoxy)-4-methyl-phenyl]-N-(2-methyl-4-sulfamoyl-phenyl)-acetamide]
197 to 199.6 | NS(=O)(=O)c1ccc(NC(=O)Cc2ccc(Cl)c(C(=O)c3cc(Cl)ccc3Cl)c2)c(Cl)c1 [Compound I-253, 2-[4-Chloro-3-(2,5-dichloro-benzoyl)-phenyl]-N-(2-chloro-4-sulfamoyl-phenyl)-acetamide]
184.8 to 186 | Cc1cc(CC(=O)Nc2ccc(S(N)(=O)=O)cc2C)cc(Oc2cc(Cl)cc(C#N)c2)c1 [Compound I-142, 2-[3-(3-Chloro-5-cyano-phenoxy)-5-methyl-phenyl]-N-(2-methyl-4-sulfamoyl-phenyl)-acetamide]
